Assay results: US9771372B2, “Compounds useful as S100-inhibitors” (Active Biotech AB, priority 2014, dated 2017)

biological target: T1, interaction between biotinylated human S100A9 and human RAGE-Fc (Homo sapiens, UniProt P06702); experiment: AlphaScreen inhibition assay, Biot-hS100A9:hRAGE-Fc (S100A9-RAGE inhibition assay); assay type: binding; conditions: biot-hS100A9 and rhRAGE-Fc, Ca2+ and Zn2+ in buffer
T1 construct: made in house; host or cells: E. coli BL21(DE3)/pET1120 (pLR757)
T1 sequence (P06702 1-114): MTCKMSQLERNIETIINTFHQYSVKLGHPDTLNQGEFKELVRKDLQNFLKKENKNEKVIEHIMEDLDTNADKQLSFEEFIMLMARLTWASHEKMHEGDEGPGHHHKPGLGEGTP
Description: FIG. 1 is a schematic representation of an assay of the inhibition of the interaction between biotinylated human S100A9 and human RAGE-Fc using a small molecule S100A9 binder.
Inhibition Assay, Biot-hS100A9:hRAGE-Fc
The AlphaScreen (Amplified Luminescent Proximity Homogeneous Assay) contains two types of beads, Alpha Donor beads and Acceptor beads (PerkinElmer). Upon laser excitation at 680 nm a photosensitizer in the Donor bead converts ambient oxygen to a more excited singlet state. The singlet oxygen molecule diffuses (maximum 200 nm) to react with a thioxene derivative in the Acceptor bead and generates a chemiluminescence reaction. Fluorophores in the Acceptor bead subsequently emit light at 520-620 nm which can be detected in the EnVision® Multilabel plate Reader (PerkinElmer). The beads are light sensitive and all work with the beads is performed under subdued light conditions or using green filters on light sources (Roscolux Chroma Green #389, Rosco).
In the AlphaScreen Inhibition Assay described here, protein A (Staphylococcus aureus) conjugated Acceptor beads are used together with streptavidin coated Donor beads (Perkin Elmer 6760617M). The Acceptor beads are pre-incubated with Fc-tagged recombinant human RAGE (rhRAGE-Fc) allowing binding of the rhRAGE-Fc to protein A on the beads. Biotinylated human S100A9 (biot-hS100A9) is pre-incubated with the low molecular test compounds. The pre-mixes are then added to the wells of a micro-plate and incubated allowing interaction between biot-hS100A9 and rhRAGE-Fc. Subsequent addition of streptavidin coated Donor beads causes binding of the streptavidin to the biotinylated hS100A9. After an additional incubation the signal is measured.
Without inhibitory compounds, the interaction of biot-hS100A9 to rhRAGE-Fc will bring the Acceptor and Donor beads in close proximity thus generating a high signal. With an inhibitor present the complex will not form resulting in a decreased signal.
The AlphaScreen assay method is used for screening of the inhibitory effect of different compound samples at fixed concentrations or for IC50 determination by varying the compound concentrations. Samples of test compounds and references are prepared from solutions in DMSO. Relevant reference inhibitors and DMSO are used as controls for defined inhibition and non-inhibition, respectively in the assay. The percent inhibition in assay for test compounds and references are calculated by comparing their obtained assay signals with the signal values for the control with only DMSO (no compound).
Assay concentration of biotinylated hS100A9 and rhRAGE-Fc are batch dependent, and are determined and defined by separate cross-titration experiments using this AlphaScreen inhibition method to verify the optimal setup regarding signal strength and achievement of a defined inhibition with relevant reference compounds. The Final assay concentrations of Acceptor and Donor beads are 20 μg/mL.
Assay buffer is prepared by adding CaCl2 and ZnCl2 to HBS-P and is used freshly prepared in the experiment.
Biotin-hS100A9 solution for the experiment is prepared by dilution of appropriate amount of stock solution biot-hS100A9 in assay buffer (with CaCl2 and ZnCl2) and incubation in room temperature for 30 minutes.
rhRAGE-Fc solution for the experiment is prepared by dilution appropriate amount of rhRAGE-Fc stock in assay buffer.
Protein A Acceptor beads are diluted in assay buffer and are added to an equal volume of the prepared diluted rhRAGE-Fc solution. The beads are light sensitive. The vial is covered with aluminum foil and incubated at room temperature in the dark until biot-hS100A9+compound incubation is finished (see below).
Streptavidin-coated Donor beads are diluted in assay buffer. The beads are very light sensitive. The vial is covered with aluminum foil and incubated at room temperature in the dark until use (see below).
Samples of test compounds, appropriate references and DMSO control are diluted in assay buffer. […]

| Structure (SMILES) | IC50 [µM] |
| --- | --- |
| O=C(NC1(C(F)(F)F)C(=O)Nc2nc3cc(Cl)c(Cl)cc3n21)[C@@H]1CCCN1 (mixture of isomers) [Example 41, (2S)—N-[10,11-dichloro-4-oxo-3-(trifluoromethyl)-2,5,7-triaza-tricyclo[6.4.0.0^2,6]dodeca-1(12),6,8,10-tetraen-3-yl]pyrrolidine-2-carboxamide] | 2 |
| O=C(NC1(C(F)(F)F)C(=O)Nc2nc3cc(Cl)c(Cl)cc3n21)C1CCNC1 (mixture of isomers) [Example 42, N-[10,11-dichloro-4-oxo-3-(trifluoromethyl)-2,5,7-triazatricyclo-[6.4.0.0^2,6]dodeca-1(12),6,8,10-tetraen-3-yl]pyrrolidine-3-carboxamide] | 2 |
| COC[C@H](C)Nc1cccc(C(=O)NC2(C(F)(F)F)C(=O)Nc3nc4c(C#N)c(Cl)ccc4n32)n1 (mixture of isomers) [Example 140, N-[10-chloro-9-cyano-4-oxo-3-(trifluoromethyl)-2,5,7-triaza-tricyclo[6.4.0.0^2,6]dodeca-1(8),6,9,11-tetraen-3-yl]-6-{[(2S)-1-methoxypropan-2-yl]amino}-pyridine-2-carboxamide] | 1.45 |
| Cc1cc2nc3n(c2cc1C)C(NC(=O)[C@@H](C)CC1CCCC1)(C(F)(F)F)C(=O)N3 (mixture of isomers) [Example 145, (2S)-3-cyclopentyl-N-[10,11-dimethyl-4-oxo-3-(trifluoromethyl)-2,5,7-triazatricyclo[6.4.0.0^2,6]dodeca-1(8),6,9,11-tetraen-3-yl]-2-methylpropanamide] | 3.12 |
| O=C(NC1(C(F)(F)F)C(=O)Nc2nc3cc(Cl)c(Cl)cc3n21)C1CCN(C(=O)C2CCCC2)C1 (racemic) [Example 50, (rac).1-cyclopentanecarbonyl-N-[10,11-dichloro-4-oxo-3-(trifluoromethyl)-2,5,7-triaza-tricyclo[6.4.0.0^2,6]dodeca-1(12),6,8,10-tetraen-3-yl]pyrrolidine-3-carboxamide] | 2.3 |
| Cc1cc2nc3n(c2cc1C)C(NC(=O)[C@@H]1CCCN1S(C)(=O)=O)(C(F)(F)F)C(=O)N3 (single isomer, unassigned) [Example 89] | 5.9 |
| Cc1cc2nc3n(c2cc1C)C(NC(=O)[C@@H](C)c1ccccc1)(C(F)(F)F)C(=O)N3 (single isomer, unassigned) [Example 144] | 6.41 |
| Cc1cc2nc3n(c2cc1C)C(NC(=O)[C@@H](O)c1ccccc1)(C(F)(F)F)C(=O)N3 (single isomer, unassigned) [Example 146a] | 5.39 |
| CO[C@H](C(=O)NC1(C(F)(F)F)C(=O)Nc2nc3cc(C)c(C)cc3n21)c1ccccc1 (single isomer, unassigned) [Example 147b] | 3.44 |
| Cc1cc2nc3n(c2cc1C)C(NC(=O)[C@@H](C)Oc1cccc(Cl)c1)(C(F)(F)F)C(=O)N3 (single isomer, unassigned) [Example 212a] | 0.61 |
| Cc1cc2nc3n(c2cc1C)C(NC(=O)[C@@H](C)Oc1cccc(Cl)c1)(C(F)(F)F)C(=O)N3 (single isomer, unassigned) [Example 212b] | 4.58 |
| Cc1cc2nc3n(c2cc1C)C(NC(=O)[C@H](C)OCC1CCCC1)(C(F)(F)F)C(=O)N3 (single isomer, unassigned) [Example 215a] | 1.44 |
| Cc1cc2nc3n(c2cc1C)C(NC(=O)[C@H](C)OCC1CCCC1)(C(F)(F)F)C(=O)N3 (single isomer, unassigned) [Example 215b] | 2.66 |
| Cc1cc2nc3n(c2cc1C)C(NC(=O)CCC1CCCC1)(C(F)(F)F)C(=O)N3 (single isomer, unassigned) [Example 218a, 3-cyclopentyl-N-[10,11-dimethyl-4-oxo-3-(trifluoromethyl)-2,5,7-triazatricyclo[6.4.0.0^2,6]dodeca-1(12),6,8,10-tetraen-3-yl]propanamide] | 3.13 |
| Cc1cc2nc3n(c2cc1C)C(NC(=O)CCC1CCCC1)(C(F)(F)F)C(=O)N3 (single isomer, unassigned) [Example 218b, 3-cyclopentyl-N-[10,11-dimethyl-4-oxo-3-(trifluoromethyl)-2,5,7-triazatricyclo[6.4.0.0^2,6]dodeca-1(12),6,8,10-tetraen-3-yl]propanamide] | 0.73 |
| O=C(CCC1CCCC1)NC1(C(F)(F)F)C(=O)Nc2nc3cc(Cl)c(Cl)cc3n21 (single isomer, unassigned) [Example 219a, 3-cyclopentyl-N-[10,11-dichloro-4-oxo-3-(trifluoromethyl)-2,5,7-triazatricyclo[6.4.0.0^2,6]dodeca-1(12),6,8,10-tetraen-3-yl]propanamide] | 0.94 |
| O=C(CCC1CCCC1)NC1(C(F)(F)F)C(=O)Nc2nc3cc(Cl)c(Cl)cc3n21 (single isomer, unassigned) [Example 219b, 3-cyclopentyl-N-[10,11-dichloro-4-oxo-3-(trifluoromethyl)-2,5,7-triazatricyclo[6.4.0.0^2,6]dodeca-1(12),6,8,10-tetraen-3-yl]propanamide] | 0.23 |
| COCCNc1cccc(C(=O)NC2(C(F)(F)F)C(=O)Nc3nc4cc(C)c(C)cc4n32)n1 (single isomer, unassigned) [Example 220a, N-[10,11-dimethyl-4-oxo-3-(trifluoromethyl)-2,5,7-triazatricyclo[6.4.0.0^2,6]dodeca-1(12),6,8,10-tetraen-3-yl]-6-[(2-methoxyethyl)amino]pyridine-2-carboxamide] | 1.93 |
| COCCNc1cccc(C(=O)NC2(C(F)(F)F)C(=O)Nc3nc4cc(C)c(C)cc4n32)n1 (single isomer, unassigned) [Example 220b, N-[10,11-dimethyl-4-oxo-3-(trifluoromethyl)-2,5,7-triazatricyclo[6.4.0.0^2,6]dodeca-1(12),6,8,10-tetraen-3-yl]-6-[(2-methoxyethyl)amino]pyridine-2-carboxamide] | 4 |
| CC(=O)c1cccc2c1nc1n2C(NC(=O)CCC2CCCC2)(C(F)(F)F)C(=O)N1 (single isomer, unassigned) [Example 224a, N-[9-acetyl-4-oxo-3-(trifluoromethyl)-2,5,7-triazatricyclo[6.4.0.0^2,6]dodeca-1(12),6,8,10-tetraen-3-yl]-3-cyclopentylpropanamide] | 0.88 |
| CC(=O)c1cccc2c1nc1n2C(NC(=O)CCC2CCCC2)(C(F)(F)F)C(=O)N1 (single isomer, unassigned) [Example 224b, N-[9-acetyl-4-oxo-3-(trifluoromethyl)-2,5,7-triazatricyclo[6.4.0.0^2,6]dodeca-1(12),6,8,10-tetraen-3-yl]-3-cyclopentylpropanamide] | 10.1 |
| COc1ccc(-c2cccc3c2nc2n3C(NC(=O)CCC3CCCC3)(C(F)(F)F)C(=O)N2)cc1 (single isomer, unassigned) [Example 230a, 3-cyclopentyl-N-[9-(4-methoxyphenyl)-4-oxo-3-(trifluoromethyl)-2,5,7-triazatricyclo[6.4.0.0^2,6]dodeca-1(12),6,8,10-tetraen-3-yl]propanamide] | 0.26 |
| COc1ccc(-c2cccc3c2nc2n3C(NC(=O)CCC3CCCC3)(C(F)(F)F)C(=O)N2)cc1 (single isomer, unassigned) [Example 230b, 3-cyclopentyl-N-[9-(4-methoxyphenyl)-4-oxo-3-(trifluoromethyl)-2,5,7-triazatricyclo[6.4.0.0^2,6]dodeca-1(12),6,8,10-tetraen-3-yl]propanamide] | 2.88 |
